Measurements published in paper PMC2932859 (Journal of medicinal chemistry, 2010).
Entries after “also recorded” stand apart in the source; their conditions may differ.

Tests used:
[1] = Human liver microsomal stability; format: in vitro ADME; conditions: compared with control drug verapamil
[2] = tested on: human foreskin fibroblasts (HFF); assay: Toxicity for host cells; format: cell-based; conditions: uptake of 3H thymidine by nonconfluent HFF
[3] = tested on: T. gondii (RH strain, Type 1); assay: Testing of inhibitors in vivo, acute parenteral infection of mice; design: species or system Toxoplasma gondii; conditions: for Parasite burden in mice: CD1 mice infected intraperitoneally with 2000 T. gondii, inhibitors intraperitoneally at 10mg/kg, peritoneal cavity, day 5 post-infection, P<0.05; for Efficacy in protecting mice against parasite burden relative to triclosan: higher than triclosan itself
[4] = tested on: tachyzoites of RH strain of T. gondii; assay: Inhibition of T. gondii tachyzoites in vitro; format: cell-based, Toxoplasma gondii; conditions: uptake of tritiated uracil
S. aureus ENR = conditions: cited from earlier work
TgENR = target: T1, TgENR (Toxoplasma gondii, UniProt Q6UCJ9); assay: TgENR inhibitor assay; format: biochemical; conditions: for Inhibition of TgENR, in words: recombinant TgENR enzyme assay
T1 sequence (Q6UCJ9 28-417): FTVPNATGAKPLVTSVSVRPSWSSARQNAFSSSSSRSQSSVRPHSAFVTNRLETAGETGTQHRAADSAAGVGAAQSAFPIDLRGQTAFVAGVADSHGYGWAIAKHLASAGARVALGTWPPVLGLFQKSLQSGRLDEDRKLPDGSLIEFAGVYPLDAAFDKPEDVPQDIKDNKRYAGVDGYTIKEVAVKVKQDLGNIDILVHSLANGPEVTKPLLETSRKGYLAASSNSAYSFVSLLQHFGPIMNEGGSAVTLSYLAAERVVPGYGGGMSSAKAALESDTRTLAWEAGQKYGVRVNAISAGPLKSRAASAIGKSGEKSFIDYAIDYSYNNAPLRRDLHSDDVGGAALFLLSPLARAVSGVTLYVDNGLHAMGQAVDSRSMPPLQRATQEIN

E. coli ENR = conditions: cited from earlier work
P. falciparum ENR = conditions: read-out: IC50 against P. falciparum ENR; cited from earlier work
[5] = earlier studies; cited from earlier work

## CCCc1ccc(Oc2ccc(C#N)cc2Cl)c(O)c1 [Compound 19]
[1]
  Intrinsic clearance, metabolic rate in HLM, in words: slower than the control drug verapamil
[2]
  Toxicity to fibroblasts, in words: lack of inhibition of fibroblast growth; also recorded: not toxic
[3]
  Parasite burden in mice: reduce parasite burden
  Efficacy in protecting mice against parasite burden relative to triclosan: approximately 5 times
[4]
  Effect on T. gondii tachyzoites in tissue culture, in words: inhibition of T. gondii tachyzoites; also recorded: efficacious

## CN(Cc1cc2ccccc2n1C)C(=O)/C=C/c1ccc(N)nc1 [Compound 50]
S. aureus ENR
  Activity against S. aureus ENR, in words: very effective
TgENR
  Inhibition of TgENR, in words: moderate activity
E. coli ENR
  Activity against E. coli ENR, in words: very effective

## O=[N+]([O-])c1ccc(Oc2ccc(Cl)cc2O)c(Cl)c1 [Compound 2]
[1]
  Intrinsic clearance, metabolic rate in HLM, in words: slower than the control drug verapamil
TgENR
  IC50: 45 nM
  Inhibition of TgENR, in words: highly active
[2]
  Toxicity to fibroblasts, in words: lack of inhibition of fibroblast growth
[3]
  Parasite burden in mice: reduce parasite burden
  Efficacy in protecting mice against parasite burden relative to triclosan: approximately 5 times
[4]
  Effect on T. gondii tachyzoites in tissue culture, in words: inhibition of T. gondii tachyzoites
P. falciparum ENR
  IC50: 200 nM

## Oc1cc(Cl)ccc1Oc1cnccn1 [Compound 18]
TgENR
  Inhibition of TgENR, in words: no activity

## Oc1cc(Cl)ccc1Oc1cccnc1 [Compound 17]
TgENR
  Inhibition of TgENR, in words: some activity

## CCCc1ccc(Oc2cccc(B(O)O)c2)c(O)c1 [Compound 20, 3-(2-Hydroxy-4-propylphenoxy)phenyl boronic acid]
TgENR
  Inhibition of TgENR, in words: very effective inhibitor

## C/C=C/C=C/C(=O)Nc1ccc(Oc2ccc(Cl)cc2O)cc1 [Compound 25, Hexa-2,4-dienoic acid (4-(4-chloro-2-hydroxyphenoxy)-phenyl)amide]
[2]
  Toxicity to fibroblasts, in words: toxic
[4]
  Effect on T. gondii tachyzoites in tissue culture, in words: lack of inhibition

## O=c1cc(OCc2ccccc2)ccn1Cc1ccc([N+](=O)[O-])cc1Cl [Compound 39]
TgENR
  Inhibition of TgENR, in words: low micro molar; also recorded: poor inhibitor
[2]
  Toxicity to fibroblasts, in words: lack of inhibition of fibroblast growth
[4]
  Effect on T. gondii tachyzoites in tissue culture, in words: inhibition of T. gondii tachyzoites

## Oc1cc(Cl)ccc1Oc1ccc(Cl)cc1Cl [Triclosan]
[5]
  Safety in mice, in words: safe

## Oc1cc(Cl)ccc1Oc1ccc(-c2ccccc2)cc1 [Compound 6]
TgENR
  IC50: > 2000 nM
